Laboratory results taken from US20250113825A1 (priority 2022, published 2025).

Assays:
[1] = system: Pyricularia oryzae causing neck blast; experiment: whole plant or invertebrate; type: in vivo; conditions: for Observed efficacy of stobilurin fungicide (%): Table 5(a), Picoxystrobin 67.8 g a.i./ha, Trifloxystrobin 100 g a.i./ha alone
rice neck blast fungi = type: in vivo, Pyricularia oryzae; conditions: Prothioconazole 120 gai/ha alone or with Azoxystrobin 280, Picoxystrobin 67, Trifloxystrobin 100 gai/ha

CC(C)OC(=O)C(C(=O)OC(C)C)=C1SCCS1 [Isoprothiolane]
Observed efficacy of isoprothiolane (%) ([1]; Table 5(b), Isoprothiolane 250 g a.i./ha alone): 48%

CO/C=C(/C(=O)OC)c1ccccc1COc1cccc(C(F)(F)F)n1 [Picoxystrobin]
Observed efficacy of stobilurin fungicide (%) [1]: 42%

OC(Cc1ccccc1Cl)(Cn1nc[nH]c1=S)C1(Cl)CC1 (centres unmarked) [Prothioconazole, 2-[2-(1-chlorocyclopropyl)-3-(2-chlorophen-yl)-2-hydroxypropyl]-2,4-dihydro-[1,2,4-]-triazole-3-thione]
% Control (rice neck blast) (rice neck blast fungi): 41.49% | inhibition at 120 g/ha ([1]; Pyricularia oryzae, read-out: Observed efficacy of demethylation inhibitor fungicide (%)): 49%

CON=C(C(=O)OC)c1ccccc1CON=C(C)c1cccc(C(F)(F)F)c1 [Trifloxystrobin]
Observed efficacy of stobilurin fungicide (%) [1]: 60%
